Experimental findings from patent US10138255B2, “Piperazine derivatives as HIV protease inhibitors” (Merck Sharp & Dohme Corp., priority 2014, dated 2018) are described below.

Each structure is given as a SMILES string.

The test system of the experiment is HIV-1 (H9IIIB strain). In words: Cell-Based HIV Infection Assay Using a Reporter (MT4-GFP cells). Particulars: Human immunodeficiency virus 1, inflection point (IP) of viral growth inhibition; MT4-GFP cells infected with HIV-1 H9IIIB; 50% normal human serum; mean of at least two independent experiments; read-out: Cell Based IP (50% NHS). In short, it runs like this: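 Inflection point from a 4-parameter curve of % viral growth inhibition, normalised to DMSO and triple-drug controls, using the 48 h/24 h ratio of GFP-positive cells (R0). MT4-GFP cells pre-infected 24 h with HIV-1 H9IIIB at low MOI; compounds tested in 50% normal human serum, 0.4% DMSO; mean of ≥2 experiments.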
Consider `COc1ccc([C@H](c2ccc(F)c(F)c2)[C@H](N)C(=O)Nc2cccc(F)c2CCC2CNC3CCCS(=O)(=O)N2C3)cn1` (stereo partly drawn) [Example 66, (βS)-N-{2-[2-(2,2-dioxido-2-thia-1,7-diazabicyclo[4.3.1]dec-9-yl)ethyl]-3-fluorophenyl}-3,4-difluoro-β-(6-methoxypyridin-3-yl)-L-phenylalaninamide], for which the EC50 worked out at 8.2 nM. As for `CC(C)Oc1ccc([C@H](c2ccc(Cl)cc2)[C@H](N)C(=O)Nc2cccc(F)c2CCC2CNC3CCCS(=O)(=O)N2C3)cn1` (stereo partly drawn) [Example 11, (βS)-4-Chloro-N-{2-[2-(2,2-dioxido-2-thia-1,7-diazabicyclo[4.3.1]dec-9-yl)ethyl]-3-fluorophenyl}-β-[6-(1-methylethoxy)pyridin-3-yl]-L-phenylalaninamide], the figure is 4 nM; as for `CC1(OC(=O)N2CCC([C@H](c3ccc(Cl)cc3)[C@H](N)C(=O)N[C@H]3CCC[C@@H]3CC[C@H]3CN[C@@H]4CCCS(=O)(=O)N3C4)CC2)CC1` [Example 208, 1-methylcyclopropyl 4-[(1R,2S)-2-amino-1-(4-chlorophenyl)-3-{[(1S,2R)-2-{2-[(6R,9S)-2,2-dioxido-2-thia-1,7-diazabicyclo[4.3.1]dec-9-yl]ethyl}cyclopentyl]amino}-3-oxopropyl]piperidine-1-carboxylate], 100 nM. In the case of `CC(C)Oc1ncc([C@H](c2ccc(Cl)cc2)[C@H](N)C(=O)Nc2cccc(F)c2CC[C@H]2CN[C@@H]3CCCS(=O)(=O)N2C3)cn1` [Example 247, (βS)-4-chloro-N-(2-{2-[(6R,9S)-2,2-dioxido-2-thia-1,7-diazabicyclo[4.3.1]dec-9-yl]ethyl}-3-fluorophenyl)-β-[2-(1-methylethoxy)pyrimidin-5-yl]-L-phenylalaninamide] it was 7.2 nM; in that of `CC1(C)C[C@@H]([C@H](c2ccc(Cl)cc2)[C@H](N)C(=O)Nc2cncc(F)c2CC[C@H]2CN[C@@H]3CCCS(=O)(=O)N2C3)CCO1` [Example 215, (βR)-4-chloro-β-[(4S)-2,2-dimethyltetrahydro-2H-pyran-4-yl]-N-(4-{2-[(6R,9S)-2,2-dioxido-2-thia-1,7-diazabicyclo[4.3.1]dec-9-yl]ethyl}-5-fluoropyridin-3-yl)-L-phenylalaninamide], 8 nM; in that of `COC(=O)N[C@H](C(=O)Nc1ccc(F)c(F)c1CC[C@H]1CN[C@@H]2CCCS(=O)(=O)N1C2)[C@@H](c1ccc(F)cc1)C1CCOC(C)(C)C1` (stereo partly drawn) [Example 28, Methyl [(1S,2R)-2-(2,2-dimethyltetrahydro-2H-pyran-4-yl)-1-[(2-{2-[(6R,9S)-2,2-dioxido-2-thia-1,7-diazabicyclo[4.3.1]dec-9-yl]ethyl}-3,4-difluorophenyl)carbamoyl]-2-(4-fluorophenyl)ethyl]carbamate], 13 nM. As for `CO[C@H]1CC[C@](c2ccc(F)cc2)([C@H](N)C(=O)Nc2cccc(F)c2CC[C@H]2CN[C@@H]3CCCS(=O)(=O)N2C3)CC1` [Example 205, (2S)-2-amino-N-(2-{2-[(6R,9S)-2,2-dioxido-2-thia-1,7-diazabicyclo[4.3.1]dec-9-yl]ethyl}-3-fluorophenyl)-2-[trans-1-(4-fluorophenyl)-4-methoxycyclohexyl]ethanamide], the figure is 130 nM.

As for `COC(=O)N[C@H](C(=O)Nc1cccc(F)c1CCC1CNC2CCCS(=O)(=O)N1C2)[C@@H](c1ccc(Cl)cc1)C1CCC(F)(F)CC1` (stereo partly drawn) [Example 5, Methyl [(1S,2R)-2-(4-chlorophenyl)-2-(4,4-difluorocyclohexyl)-1-({2-[2-(2,2-dioxido-2-thia-1,7-diazabicyclo[4.3.1]dec-9-yl)ethyl]-3-fluorophenyl}carbamoyl)ethyl]carbamate], the EC50 stood at 9.4 nM.

Consider `N[C@H](C(=O)Nc1cccc(F)c1CCC1CNC2CCCS(=O)(=O)N1C2)[C@H](c1cncc(Cl)c1)c1ccc(Cl)c(F)c1` (stereo partly drawn) [Example 72, (βS)-4-chloro-β-(5-chloropyridin-3-yl)-N-{2-[2-(2,2-dioxido-2-thia-1,7-diazabicyclo[4.3.1]dec-9-yl)ethyl]-3-fluorophenyl}-3-fluoro-L-phenylalaninamide], for which the EC50 came to 5.1 nM. As for `COC(=O)N[C@H](C(=O)Nc1cccc(F)c1CC[C@H]1CNC2CCCS(=O)(=O)N1C2)[C@@H](c1ccc(Cl)cc1)C1CCS(=O)(=O)CC1` (stereo partly drawn) [Example 159, methyl {(1S,2R)-2-(4-chlorophenyl)-2-(1,1-dioxidotetrahydro-2H-thiopyran-4-yl)-1-[(2-{2-[(9S)-2,2-dioxido-2-thia-1,7-diazabicyclo[4.3.1]dec-9-yl]ethyl}-3-fluorophenyl)carbamoyl]ethyl}carbamate], the figure is 720 nM; as for `COC(=O)N[C@H](C(=O)Nc1cccc(F)c1CC[C@H]1CN[C@@H]2CCCS(=O)(=O)N1C2)[C@@H](c1ccc(Cl)cc1)C1CCC(C)(C)OC1` (stereo partly drawn) [Example 271, methyl {(1S,2R)-2-(4-chlorophenyl)-2-(6,6-dimethyltetrahydro-2H-pyran-3-yl)-1-[(2-{2-[(6R,9S)-2,2-dioxido-2-thia-1,7-diazabicyclo[4.3.1]dec-9-yl]ethyl}-3-fluorophenyl)carbamoyl]ethyl}carbamate], 7 nM. As for `COC(=O)N[C@H](C(=O)Nc1cccc(F)c1CC[C@H]1CNC2CCCS(=O)(=O)N1C2)[C@@H](c1ccc(Cl)cc1)[C@H]1CCOC(C)(C)C1` (stereo partly drawn) [Example 43, methyl {(1S,2R)-2-(4-chlorophenyl)-2-[(4S)-2,2-dimethyltetrahydro-2H-pyran-4-yl]-1-[(2-{2-[(9S)-2,2-dioxido-2-thia-1,7-diazabicyclo[4.3.1]dec-9-yl]ethyl}-3-fluorophenyl)carbamoyl]ethyl}carbamate], the figure is 8.5 nM; as for `COC(=O)N[C@H](C(=O)Nc1cccc(F)c1CCC1CNC2CCCS(=O)(=O)N1C2)C(c1ccc(Cl)cc1)c1ccc(OC(C)C)nc1` (stereo in doubt) [Example 94, methyl {(1S,2R)-2-(4-chlorophenyl)-1-({2-[2-(2,2-dioxido-2-thia-1,7-diazabicyclo[4.3.1]dec-9-yl)ethyl]-3-fluorophenyl}carbamoyl)-2-[6-(1-methylethoxy)pyridin-3-yl]ethyl}carbamate], 6.4 nM. In the case of `COC(=O)N[C@H](C(=O)N[C@H]1CCC[C@@H]1CC[C@H]1CN[C@@H]2CCCS(=O)(=O)N1C2)[C@@H](c1ccc(Cl)cc1)c1ccc(OC)nc1` [Example 78, methyl [(1S,2S)-2-(4-chlorophenyl)-1-{[(1S,2R)-2-{2-[(1S,2S)-2,2-dioxido-2-thia-1,7-diazabicyclo[4.3.1]dec-9-yl]ethyl}cyclopentyl]carbamoyl}-2-(6-methoxypyridin-3-yl)ethyl]carbamate] it was 38 nM. Regarding `N[C@H](C(=O)N[C@H]1CCC[C@@H]1CC[C@H]1CN[C@@H]2CCCS(=O)(=O)N1C2)[C@@H](c1ccc(Cl)cc1)C1CCS(=O)(=O)CC1` [Example 157, (βR)-4-chloro-β-(1,1-dioxidotetrahydro-2H-thiopyran-4-yl)-N-[(1S,2R)-2-{2-[(6R,9S)-2,2-dioxido-2-thia-1,7-diazabicyclo[4.3.1]dec-9-yl]ethyl}cyclopentyl]-L-phenylalaninamide], the EC50 stood at 3400 nM. In the case of `COC(=O)N[C@H](C(=O)N[C@H]1CCC[C@@H]1CC[C@H]1CN[C@@H]2CCCS(=O)(=O)N1C2)[C@@H](c1ccc(F)cc1)C1C[C@@H](C)O[C@@H](C)C1` (stereo partly drawn) [Example 108, methyl [(1S,2R)-2-[(2R,4s,6S)-2,6-dimethyltetrahydro-2H-pyran-4-yl]-1-{[(1S,2R)-2-{2-[(6R,9S)-2,2-dioxido-2-thia-1,7-diazabicyclo[4.3.1]dec-9-yl]ethyl}cyclopentyl]carbamoyl}-2-(4-fluorophenyl)ethyl]carbamate] it was 50 nM; in that of `CC(C)Oc1cc([C@H](c2ccc(Cl)cc2)[C@H](N)C(=O)Nc2cccc(F)c2CCC2CNC3CCCS(=O)(=O)N2C3)ccn1` (stereo partly drawn) [Example 17, (βS)-4-Chloro-N-{2-[2-(2,2-dioxido-2-thia-1,7-diazabicyclo[4.3.1]dec-9-yl)ethyl]-3-fluorophenyl}-β-[2-(1-methylethoxy)pyridin-4-yl]-L-phenylalaninamide], 8.9 nM. Regarding `N[C@H](C(=O)N[C@H]1CCCC[C@@H]1CC[C@H]1CN[C@@H]2CCCS(=O)(=O)N1C2)[C@H](c1cncc(C(F)(F)F)c1)c1ccc(Cl)c(F)c1` [Example 150], the EC50 came to 22 nM.

Turning to `CO[C@H]1CC[C@H]([C@H](c2ccc(F)cc2)[C@H](N)C(=O)Nc2cccc(F)c2CC[C@H]2CN[C@@H]3CCCS(=O)(=O)N2C3)CC1` [Example 118, (βR)-N-(2-{2-[(6R,9S)-2,2-dioxido-2-thia-1,7-diazabicyclo[4.3.1]dec-9-yl]ethyl}-3-fluorophenyl)-4-fluoro-β-[(1r,4R)-4-methoxycyclohexyl]-L-phenylalaninamide], the EC50 is 7.5 nM.
